Laboratory results from ChEMBL document CHEMBL4610090, “Oleanolic Acid Ameliorates Benign Prostatic Hyperplasia by Regulating PCNA-Dependent Cell Cycle Progression In Vivo and In Vitro” (J Nat Prod, 2020).
Blank lines part the entries; values can stand above or below the molecule they belong to. The source made the active and inactive calls. The calls are words filed in the database; no cut-off is given here.

Legend:
[1] = test system: Rattus norvegicus; test: Suppression of prostate tissue weight in Sprague-Dawley rat model of testosterone propionate-induced benign prostatic hyperplasia at 10 mg/kg, po relative to control; format: functional
[2] = test system: Rattus norvegicus; test: Downregulation of prostate Bcl-xL expression in Sprague-Dawley rat model of testosterone propionate-induced benign prostatic hyperplasia at 10 mg/kg, po by Western blot analysis; format: functional, organism-based
[3] = test system: Rattus norvegicus; test: Induction of PARP1 cleavage in prostate tissue of Sprague-Dawley rat model of testosterone propionate-induced benign prostatic hyperplasia at 10 mg/kg, po by Western blot analysis; format: functional, organism-based
[4] = test system: Rattus norvegicus; test: Suppression of serum DHT level in Sprague-Dawley rat model of testosterone propionate-induced benign prostatic hyperplasia at 10 mg/kg, po by ELISA; format: functional, organism-based
[5] = test system: Rattus norvegicus; test: Downregulation of prostate Bcl2 expression in Sprague-Dawley rat model of testosterone propionate-induced benign prostatic hyperplasia at 10 mg/kg, po by Western blot analysis; format: functional, organism-based
[6] = test system: Rattus norvegicus; test: Suppression of 5-alpha reductase2 mRNA expression in Sprague-Dawley rat model of testosterone propionate-induced benign prostatic hyperplasia at 10 mg/kg, po by qRT-PCR method; format: functional, organism-based
[7] = test system: Rattus norvegicus; test: Suppression of prostate epithelial thickness in Sprague-Dawley rat model of testosterone propionate-induced benign prostatic hyperplasia at 10 mg/kg, ip by hematoxylin and eosin staining-based microscopic analysis relative to control; format: functional
[8] = test system: Rattus norvegicus; test: Suppression of prostate tissue weight in Sprague-Dawley rat model of testosterone propionate-induced benign prostatic hyperplasia at 10 mg/kg, ip relative to control; format: functional
[9] = test system: Rattus norvegicus; test: Downregulation of PCNA mRNA expression in prostate tissue of Sprague-Dawley rat model of testosterone propionate-induced benign prostatic hyperplasia at 1 mg/kg, ip by qRT-PCR method; format: functional
[10] = test system: Rattus norvegicus; test: Downregulation of Cyclin D1 expression in prostate tissue of Sprague-Dawley rat model of testosterone propionate-induced benign prostatic hyperplasia at 1 to 10 mg/kg, ip by Western blot analysis; format: functional, organism-based
[11] = test system: Rattus norvegicus; test: Downregulation of PCNA mRNA expression in prostate tissue of Sprague-Dawley rat model of testosterone propionate-induced benign prostatic hyperplasia at 10 mg/kg, ip by qRT-PCR method; format: functional
[12] = test system: BPH-1; test: Downregulation of PCNA expression in human BPH1 cells at 125 to 500 uM after 24 hrs by immunoblot analysis; format: functional, cell-based
[13] = test system: Rattus norvegicus; test: Suppression of serum DHT level in Sprague-Dawley rat model of testosterone propionate-induced benign prostatic hyperplasia at 1 to 10 mg/kg, ip by ELISA; format: functional, organism-based
[14] = test system: Rattus norvegicus; test: Downregulation of PCNA expression in prostate tissue of Sprague-Dawley rat model of testosterone propionate-induced benign prostatic hyperplasia at 1 to 10 mg/kg, ip by Western blot analysis; format: functional, organism-based
[15] = test system: Rattus norvegicus; test: Downregulation of Cdk2 expression in prostate tissue of Sprague-Dawley rat model of testosterone propionate-induced benign prostatic hyperplasia at 1 to 10 mg/kg, ip by Western blot analysis; format: functional, organism-based
[16] = test system: Rattus norvegicus; test: Suppression of 5-alpha reductase2 mRNA expression in Sprague-Dawley rat model of testosterone propionate-induced benign prostatic hyperplasia at 1 to 10 mg/kg, ip by qRT-PCR method; format: functional, organism-based
[17] = Toxicity in Sprague-Dawley rat model of testosterone propionate-induced benign prostatic hyperplasia assessed as behavioural changes at 1 to 10 mg/kg, ip; format: organism-based; conditions: in vivo
[18] = test system: BPH-1; test: Cytotoxicity against human BPH1 cells at 62.5 to 1000 uM by MTT assay; format: functional, cell-based
[19] = test system: Rattus norvegicus; test: Downregulation of Cdk4 expression in prostate tissue of Sprague-Dawley rat model of testosterone propionate-induced benign prostatic hyperplasia at 1 to 10 mg/kg, ip by Western blot analysis; format: functional, organism-based
[20] = Toxicity in Sprague-Dawley rat model of testosterone propionate-induced benign prostatic hyperplasia assessed as effect on body weight at 1 to 10 mg/kg, ip; format: organism-based; conditions: in vivo
[21] = test system: Rattus norvegicus; test: Induction of PARP1 cleavage in prostate tissue of Sprague-Dawley rat model of testosterone propionate-induced benign prostatic hyperplasia at 10 mg/kg, ip by Western blot analysis; format: functional, organism-based
[22] = Toxicity in Sprague-Dawley rat model of testosterone propionate-induced benign prostatic hyperplasia assessed as effect on animal health at 1 to 10 mg/kg, ip; format: organism-based; conditions: in vivo
[23] = target: Proliferating cell nuclear antigen (Homo sapiens) (UniProt P12004); test: Inhibition of PCNA-mediated cell cycle progression in human BPH-1 cells assessed as reduction in cyclin D level at 250 to 500 uM after 24 hrs by immunoblot analysis; format: cell-based
Proliferating cell nuclear antigen (Homo sapiens), sequence (P12004 whole entry): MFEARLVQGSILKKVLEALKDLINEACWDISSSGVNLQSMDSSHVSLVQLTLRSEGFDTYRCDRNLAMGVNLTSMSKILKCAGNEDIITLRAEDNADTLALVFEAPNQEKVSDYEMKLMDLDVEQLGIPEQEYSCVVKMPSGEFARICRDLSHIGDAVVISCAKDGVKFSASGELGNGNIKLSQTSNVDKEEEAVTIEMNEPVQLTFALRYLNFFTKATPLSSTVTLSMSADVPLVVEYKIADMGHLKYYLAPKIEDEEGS

[24] = test system: Rattus norvegicus; test: Downregulation of prostate Bcl2 expression in Sprague-Dawley rat model of testosterone propionate-induced benign prostatic hyperplasia at 1 to 10 mg/kg, ip by Western blot analysis; format: functional, organism-based
[25] = target: Proliferating cell nuclear antigen (Homo sapiens) (UniProt P12004); test: Inhibition of PCNA-mediated cell cycle progression in human BPH-1 cells assessed as reduction in cdk4 level at 125 to 500 uM after 24 hrs by immunoblot analysis; format: cell-based
[26] = test system: Rattus norvegicus; test: Downregulation of PCNA […] expression in prostate tissue of Sprague-Dawley rat model of testosterone propionate-induced benign prostatic hyperplasia at 1 to 10 mg/kg, ip by immunohistochemical analysis; format: functional, organism-based
[27] = test system: Rattus norvegicus; test: Downregulation of Cyclin E expression in prostate tissue of Sprague-Dawley rat model of testosterone propionate-induced benign prostatic hyperplasia at 1 to 10 mg/kg, ip by Western blot analysis; format: functional, organism-based
[28] = test system: Rattus norvegicus; test: Downregulation of prostate Bcl-xL expression in Sprague-Dawley rat model of testosterone propionate-induced benign prostatic hyperplasia at 1 to 10 mg/kg, ip by Western blot analysis; format: functional, organism-based
[29] = test system: Rattus norvegicus; test: Suppression of prostate epithelial thickness in Sprague-Dawley rat model of testosterone propionate-induced benign prostatic hyperplasia at 1 mg/kg, ip by hematoxylin and eosin staining-based microscopic analysis relative to control; format: functional
[30] = test system: Rattus norvegicus; test: Suppression of prostate tissue weight in Sprague-Dawley rat model of testosterone propionate-induced benign prostatic hyperplasia at 1 mg/kg, ip relative to control; format: functional

SMILES: CC(C)(C)NC(=O)[C@H]1CC[C@H]2[C@@H]3CC[C@H]4NC(=O)C=C[C@]4(C)[C@H]3CC[C@]12C [FINASTERIDE]
- inhibition in vivo at 10 mg/kg [1]: 32.5%
- Activity [2]: Active
- Activity [3]: Active
- Activity [4]: Active
- Activity [5]: Active
- inhibition [6]: Active

- inhibition [23]: Active
- inhibition [25]: Active
SMILES: CC1(C)CC[C@]2(C(=O)O)CC[C@]3(C)C(=CC[C@@H]4[C@@]5(C)CC[C@H](O)C(C)(C)[C@@H]5CC[C@]43C)[C@@H]2C1 [OLEANOLIC_ACID]
- inhibition in vivo at 10 mg/kg [7]: 54.8%
- inhibition in vivo at 10 mg/kg [8]: 31.2%
- Activity [9]: 54.89%
- Activity [10]: Active
- Activity [11]: 71.16%
- Activity [12]: Active
- inhibition [13]: Active
- Activity [14]: Active
- Activity [15]: Active
- inhibition [16]: Active
- Activity [17]: Non-Toxic
- Activity [18]: Active
- Activity [19]: Active
- Activity [20]: Non-Toxic
- Activity [21]: Active
- Activity [22]: Non-Toxic
- Activity [24]: Active
- Activity [26]: Active
- Activity [27]: Active
- Activity [28]: Active
- inhibition in vivo at 1 mg/kg [29]: 48%
- inhibition in vivo at 1 mg/kg [30]: 30.9%
